From patent US20080221074A1, “Drug Screen and Treatment Method” (priority 2006, published 2008)
Like-named read-outs stand apart in the source and are kept apart here.

Experiments:
[1] = test system: carrageenan-λ induced pleurisy; experiment: carrageenan-λ induced lung (pleural cavity) inflammation; format: in vivo, CD1 male mice; details: for number of neutrophils relative to negative control group (set at 100%): exudate 4 h after
Source text: Treatment of lung inflammation. Three compounds, 3β,16α-dihydroxy-17-oxoandrostane, 3α,16β,17β-trihydroxyandrostane and 3α,16α,17α-trihydroxyandrostane were used to treat inflammation in mice essentially as described (D. Auci et al., Ann. New York Acad. Sci. 1051:730-742 2005). Five to 8 week old CD1 male mice (Charles River, Calco, Italy) were used for the study. The animals were housed in a controlled environment and provided with standard rodent chow and water. Animal care was in compliance with applicable regulations on protection of animals. Mice were allocated into one of the following groups: (1) mice treated with 2% carrageenan-k in saline (carrageenan-λ treated control group), (2) mice treated with 0.1 mg, 0.01 mg or 0.001 mg 3β,16α-dihydroxy-17-oxoandrostane by subcutaneous (s.c.) injection 24 h and 1 h before carrageenan-λ administration, (3) mice treated with 0.1 mg, 0.01 mg or 0.001 mg of 3α,16α,17α-trihydroxyandrostane by s.c. injection 24 and 1 h before carrageenan; (4) mice treated with 0.1 mg, 0.01 mg or 0.001 mg […],16β,17β-trihydroxyandrostane by s.c. injection 24 h and 1 h before carrageenan-λ administration; (5) mice treated with vehicle (0.1% carboxymethylcellulose, 0.9% saline, 2% tween 80, 0.05% phenol) s.c. 24 h and 1 h before carrageenan-λ administration; (6) mice treated with rabbit anti-mouse polyclonal anti-TNF-α antibody (200 μg) given as an intraperitoneal bolus 24 h and 1 h before carrageenan-λ administration (positive control group); and (7) sham-operated mice that were not treated with carrageenan-λ. Each group consisted of 10 mice. All treatments were given in a final volume of 100 μL. Lung (pleural cavity) inflammation was induced as follows. The mice were anaesthetised with isoflurane and a skin incision was made at the level of the left sixth intercostal space. The underlying muscle was dissected and either 0.1 mL saline (control) or 0.1 mL saline containing 2% λ-carrageenan was injected into the pleural cavity. The carrageenan-λ is a potent inducer of inflammation, which is manifested in this protocol by accumulation of fluid and neutrophils in the pleural cavity. The incision was closed with a suture and the animals were allowed to recover.
At 4 h after the injection of carrageenan-λ, the animals were euthanized by exposure to CO2. The chest was carefully opened and the pleural cavity rinsed with 1 mL of saline solution containing heparin (5 U/mL) and indomethacin (10 μg/mL). The exudate and washing solution were removed by aspiration and the total volume measured. Any exudate contaminated with blood was discarded. The amount of exudate was calculated by subtracting the injected 1 mL volume from the total pleural cavity volume that was recovered. The neutrophils in the exudate were suspended in phosphate-buffer saline and counted with an optical microscope in a Burker's chamber after Trypan Blue staining. The results were analysed by one-way ANOVA followed by a Bonferroni post-hoc test for multiple comparisons. A p-value less than 0.05 was considered significant. For statistical analysis each group was compared to the control group of mice that were challenged with carrageenan-k and received no other treatment.
The table below describes the number of neutrophils from the treated animal groups relative to untreated control animals that were exposed to carrageenan-λ, but not treated with anything else (negative control group). The neutrophil number for the negative control group was set at 100% and other groups were compared to this.

[2] = metabolic stability in liver microsomes, species not stated; details: compared with androst-5-ene-3β,17β-diol
Description: The protocol was performed as follows. […] (2) Set up samples as follows. […] (4) The internal standard/acetonitrile solution.

[3] = test system: human T lymphocytes (PBMC); experiment: human mixed lymphocyte reaction (MLR); format: cell-based; details: 300 nM or 30 nM
Source text: Human mixed lymphocyte reaction (MLR). The capacity of 3β,16α-dihydroxy-17-oxoandrostane, 3β,17β-dihydroxy-16-oxoandrostane, 17α-ethynylandrost-5-ene-3β,7β,17β-triol, and 17β-aminoandrost-5-ene-3β-ol to affect antigen specific stimulation in which human T lymphocytes respond to a specific foreign antigen (major histocompatibility complex).
Blood samples were obtained from 3 (2 males, […]) fasting, healthy human volunteers of 23-31 years old. […] The subjects were bled between 9 and 10 AM to limit possible fluctuations in the circulating levels of hormones or cytokines that could have influenced the in vitro responses of their lymphocytes. Peripheral blood mononuclear cells (PBMC) were isolated by centrifugation on Ficoll-Hypaque (density 1.077, Biochrom AG, Berlin, Germany) gradients and resuspended in culture medium (RPMI 1640 supplemented with 2 mM L-glutamine, penicillin (100 U/mL) and streptomycin ([…]) (Invitrogen s.rl., Milan, Italy). Autologous (responder) inactivated plasma was used at 10%. Five hundred thousand responder PBMC (PBMCr) and 500,000 allogeneic irradiated (30 Gy) stimulator PBMC (PBMCs) were mixed at a ratio of 1:1 in 200 μL medium and cultured for 6 days in flat bottom 96 well plates (Nunc, Roskilde, Denmark) at a concentration of 300 nM or 30 nM for each of the 4 compounds. The compounds were dissolved in ethanol and then diluted to the desired concentration with culture medium leading to a final solution containing 0.01% of ethanol. This vehicle was used as control. Controls also included PBMCr and PBMCs cultured separately. During the last 8 hours of the culture period the PBMC were pulsed with […] [^3H] thymidine (Amersham, Milan, Italy). The cells were then harvested and radioactivity incorporation measured with a beta cell counter. The mean cpm of quadruplicate wells was calculated. Proliferation of T cells was expressed as a stimulation index: SI=cpm (PMBCs xPBMCr)/cpm (PBMCr)+cpm (PBMCs). Statistical analysis was performed using the Student's t test. The cpm obtained from quadruplicate of each test compound were compared to proliferative responses obtained in control PBMCr and PBMCs cultured in the presence of the vehicle. Differences were considered significant at p<0.05.

[4] = test system: lethal amount of bacterial lipopolysaccharide (LPS); experiment: lethal shock protocol; format: in vivo, mice; details: second assay; oral gavage 24 h before and 1 h after LPS
Description: Treatment of lethal inflammation/shock. Two compounds, 16α-bromoepiandrosterone (3β-hydroxy-16α-bromoandrostane-17-one) and 3β,16α-dihydroxy-17-oxoandrostane, were used in a lethal shock protocol. In one protocol, 3 mg of 16α-bromoepiandrosterone was administered to one group of animals by oral gavage, while another group received 3 mg of 16α-bromoepiandrosterone by subcutaneous injection. A group of control animals received a placebo control. In this protocol, the 16α-bromoepiandrosterone was administered to mice at 24 hours before and at 1 hour after administration of a lethal amount of bacterial lipopolysaccharide (LPS). By the end of the observation period, 72 hours after LPS administration, none of the vehicle treated placebo control animals had survived, while 65% of animals that received 16α-bromoepiandrosterone by oral administration survived. 50% of the animals that received 16α-bromoepiandrosterone by subcutaneous injection survived. Animals that survived for 72 hours all recovered from the LPS exposure.
In a second assay, 16α-bromoepiandrosterone or 3β,16α-dihydroxy-17-oxoandrostane was administered to mice by oral gavage at 24 hours before and 1 hour after administration of a lethal amount of LPS. A vehicle treated group of animals was used as the placebo control.

human whole blood = experiment: γ-interferon production in human whole blood exposed to LPS; format: cell-based; details: 24 hours with LPS; 16α-bromoepiandrosterone at 100 ng/mL
Description: Anti-inflammation activity in human cells in vitro. […] The amount of γ-interferon was measured in the growth medium when the cells had been incubated in the presence of LPS for 24 hours.

[5] = test system: bone loss after thermal injury; experiment: bone loss in thermally-injured mice; format: in vivo; details: 20% total body surface area thermal injury
Source text: In bone loss conditions, 5-androstene-3β,7β,17β-triol affected the principal bone structures, i.e., cortical and trabecular layers and the growth plate. […] We observed partial protection against loss of bone mineral content as measured by dual X-ray absorptiometry.

NF-κB = experiment: inhibition of NF-κB activation in NF-κB-bla THP-1 cells after LPS stimulation; format: cell-based, human; details: Homo sapiens, THP-1; LPS stimulation; 50% of the compound's maximum inhibition; averages; read-out: IC50
How it was run: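 THP-1 monocytes stably carrying an NF-κB response element–driven β-lactamase reporter, plated about 24 h before activation with LPS at 0.2 ng/mL. Reporter activity measured by FRET ratiometric detection; values are averages of usually 2-4 runs per compound.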

[6] = test system: popliteal lymph node cells; experiment: reporter antigen popliteal lymph node (PLN) assay; format: in vivo, BALB/C mice; details: compound 1.0 and 0.1 mg/day; dexamethasone 5 μg/day
Source text: Analysis of immune suppression. Glucocorticoid steroids such as dexamethasone or hydrocortisone are typically immune suppressive and have significant toxicities associated with their use. Immune suppression was examined in a reporter antigen popliteal lymph node assay in mice essentially as previously described (C. Goebel et al., Inflamm. Res., 45(Suppl. 2):S85-S90, 1996; R. Pieters et al., Environmental Health Perspectives 107(Suppl. 5):673-677, 1999). […] In this protocol, the vehicle was 0.1% carboxymethylcellulose, 0.9% saline, 2% tween 80 and 0.05% phenol, which contained 17α-ethynylandrost-5-ene-3β,7β,17β-triol in suspension in drug treated animals. Assessment of activity included (1) measuring suppression of numbers of total lymphocytes, antigen specific IgM, IgG1 and IgG2a antibody secreting cells (ASC) (ELISPOT assay) in popliteal lymph node cells; (2) analysis of cell surface marker (CD4, CD8, CD19, F480, CD80, CD86) expression by flow cytometry of living cells in suspension; and (3) IL-4, TNFα and IFNγ production by lymphocytes in vitro (ELISA).
Groups (n=5 per group) of specific pathogen free BALB/C mice were used. The Positive control group was treated with vehicle (oral gavage) and 5 μg/day dexamethasone by subcutaneous injection to induce immune suppression. Vehicle control animals (negative control) were treated with vehicle alone (oral gavage). One group of animals was treated with 17α-ethynylandrost-5-ene-3β,7β,17β-triol at 0.1 mg/day by oral gavage. Another group was treated with 1 mg/day of 17α-ethynylandrost-5-ene-3β,7β,17β-triol was administered to the animals oral gavage. The results were analyzed by two-tailed Student's t-test with equal variance. The animals were injected in the right hind footpad with 50 μL of freshly prepared sensitizing dose of TNP-OVA. […] Single cell suspensions were prepared, resuspended in 1 mL PBS-BSA (1%) and counted. Cell numbers, IL-4, IL-5 and IFNγ were measured.

MG-63 cells = experiment: pilot studies of dexamethasone in MG-63 cells; format: cell-based; details: Homo sapiens
Source text: The capacity of compounds including 5-androstene-3β,7β,17β-triol, 17α-ethynyl-5-androstene-3β,7β,17β-triol and 4-estrene-3α,17β-diol to reverse adverse effects of glucocorticoids in bone growth was shown in the human MG-63 osteosarcoma cell line. MG-63 cells are osteoblasts, which are cells that mediate bone growth. Theis cell line has been used extensively to study bone biology and to characterize the biological activity of compounds for treatment of bone loss conditions (e.g., B. D. Boyan et al., J. Biol. Chem., 264(20):11879-11886, 1989; L. C. Hofbauer et al., Endocrinology, 140(10):4382-4389, 1999). Adverse toxicities associated with elevated glucocorticoid levels include a decrease in the production of IL-6 and IL-8 by osteoblasts, including the MG-63 cell line, and an increase in the expression of the 11β-hydroxysteroid dehydrogenase type 1 enzyme (11β-HSD). Increased 11β-hydroxysteroid dehydrogenase type 1 enzyme results in increased levels of endogenous glucocorticoid activity by converting endogenous cortisone to the active cortisol, which inhibits bone growth. The 11β-HSD enzyme is expressed in liver, adipose tissue, brain and bone tissues. Cortisol generated by 11β-HSD-1 contributes to osteoporosis, insulin resistance, type 2 diabetes, dyslipidemia, obesity, central nervous system disorders such as stroke, neuron death, depression and Parkinson Disease. […]

## C[C@]12CC[C@H](O)CC1CC[C@@H]1[C@@H]2CC[C@]2(C)C(=O)[C@H](O)C[C@@H]12 (stereo partly drawn) [3β,16α-dihydroxy-17-oxoandrostane]
[1]; 0.001 mg s.c. 24 h and 1 h before carrageenan-λ
  number of neutrophils relative to negative control group (set at 100%): 97%
[1]; 0.01 mg s.c. 24 h and 1 h before carrageenan-λ
  number of neutrophils relative to negative control group (set at 100%): 73%
[1]; 0.1 mg dose s.c.
  volume of pleural exudate: significantly reduced
[1]; 0.1 mg s.c. 24 h and 1 h before carrageenan-λ
  number of neutrophils relative to negative control group (set at 100%): 73%
[1]; s.c.
  potency compared with polyclonal anti-TNF-α antibody control: less potent
[2]
  rate of metabolism by microsomes: metabolized by microsomes at a rate similar to the androst-5-ene-3β,17β-diol reference compound
[3]
  immune suppression (inhibition of the MLR): not appreciably immune suppressive
[4]
  survival 72 hours after LPS: 50%
Human whole blood
  production of γ-interferon: Reduced production

## C[C@]12CC[C@H]3[C@@H]([C@@H](O)C=C4C[C@@H](O)CC[C@@]43C)[C@@H]1CC[C@@H]2O [androst-5-ene-3β,7β,17β-triol]
[5]
  femur ash weight vs vehicle-treated burned mice: significantly (p<0.01) greater
  loss of cortical and trabecular bone mass and suppression of chondrocyte proliferation: significantly (p<0.01) prevented

## C[C@@H]1C[C@H]2[C@@H]3CCC4=CC(=O)C=C[C@]4(C)[C@@]3(F)[C@@H](O)C[C@]2(C)[C@@]1(O)C(=O)CO [dexamethasone, reference compound]
NF-κB
  IC50: 0.47 nM
[6]
  IFNγ, IL-4 and IL-5 levels compared to vehicle control: reduced
MG-63 cells; read-out: IC50 for inhibition of IL-6 from MG-63 cells
  IC50: 10 nM
MG-63 cells; read-out: IC50 for inhibition of growth of MG-63 cells
  IC50: 15.3 nM
